Results from PubChem BioAssay (NCI).
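Step 1: Grow cells in 96-well plates. Step 2: Expose to compound for 48 hours at 5 concentrations. Step 3: Interpolate endpoints linearly; if unreached, use highest concentration. TGI: total growth inhibition.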

Key:
Assay in all cases: NCI tumour cell line growth inhibition, 48 h
MDA-MB-435 = tested on: MDA-MB-435
MDA-MB-231 breast = tested on: MDA-MB-231 breast
NCI/ADR-RES ovarian = tested on: NCI/ADR-RES ovarian
T-47D breast = tested on: T-47D breast
MCF7 breast = tested on: MCF7 breast
LXFL 529 NSCLC = tested on: LXFL 529 NSCLC
XF 498 CNS = tested on: XF 498 CNS
RXF-631 renal = tested on: RXF-631 renal
786-0 renal = tested on: 786-0 renal
SN12K1 renal = tested on: SN12K1 renal
P388/ADR leukemia = tested on: P388/ADR leukemia

Compound | TGI (MDA-MB-435) | TGI (MDA-MB-231 breast) | TGI (NCI/ADR-RES ovarian) | TGI (T-47D breast) | TGI (MCF7 breast) | TGI (LXFL 529 NSCLC) | TGI (XF 498 CNS) | TGI (RXF-631 renal) | TGI (786-0 renal) | TGI (SN12K1 renal) | TGI (P388/ADR leukemia)
COc1cccc(CC2Cc3ccccc3CC(=O)N2)c1 (centres undefined) | > 100 µM | 79.2 µM | > 100 µM | > 100 µM | 92 µM | – | – | – | – | – | –
c1ccc(-c2nnc(-c3nsc4ccccc34)o2)cc1 | – | – | – | – | – | > 100 µM | – | – | – | – | –
CCOC(=O)C1=C(C)N(NC(N)=O)C2(O)CCCC(=O)C12C (centres undefined) | – | – | – | – | – | > 100 µM | > 100 µM | > 100 µM | – | – | –
O=C(O)C12CCCC(CCC1)C2 | – | – | – | – | – | > 100 µM | > 100 µM | > 100 µM | – | – | –
CC(C)C1OC(/C=C/c2ccccc2)OCC1(C)C (centres undefined) | > 100 µM | 94.7 µM | > 100 µM | > 100 µM | > 100 µM | – | – | – | > 100 µM | – | –
NC(CCOCCP(=O)(O)CCOCCC(N)C(=O)O)C(=O)O (centres undefined) | > 100 µM | > 100 µM | > 100 µM | > 100 µM | > 100 µM | – | – | – | – | – | –
CCCCC(=O)Oc1ccc2c(C)cc(=O)oc2c1 | > 100 µM | > 100 µM | > 100 µM | > 100 µM | > 100 µM | – | – | – | > 100 µM | – | –
CCCCS(=O)(=O)Nc1ccc(Nc2c3ccccc3nc3ccccc23)c(OC)c1 | – | – | 22 µM | – | 17.4 µM | – | 10.5 µM | – | – | 3.55 µM | 2880 nM
